# Source: ChEMBL document CHEMBL1138196, “Antitrypanosomal activity of 5'-deoxy-5'-(iodomethylene)adenosine and related 6-N-cyclopropyladenosine analogues” (J Med Chem, 2006)
# Test system: Trypanosoma brucei
# Assay: Antitrypanosomal activity against Trypanosoma brucei
# Assay type: functional, organism-based
row,Compound,IC50
1,O[C@@H]1[C@H](O)[C@@H](/C=C/F)O[C@H]1n1cnc2c(NC3CC3)ncnc21,19 µg/mL
2,Nc1ncnc2c1ncn2[C@@H]1O[C@H](CSCCO)[C@@H](O)[C@H]1O,0.16 µg/mL
3,Nc1ncnc2c1ncn2[C@@H]1O[C@H](/C=C/I)[C@@H](O)[C@H]1O,9 µg/mL
4,N#C/N=C/[C@H]1O[C@@H](n2cnc3c(NC4CC4)ncnc32)[C@H](O)[C@@H]1O,19 µg/mL
5,CN(C/C=C\CN)C[C@H]1O[C@@H](n2cnc3c(N)ncnc32)[C@H](O)[C@@H]1O,0.02 µg/mL
6,Nc1ncnc2c1ncn2[C@@H]1O[C@H](/C=C\I)[C@@H](O)[C@H]1O,45 µg/mL
7,O[C@@H]1[C@H](O)[C@@H](/C=C/I)O[C@H]1n1cnc2c(NC3CC3)ncnc21,12 µg/mL
8,CC(=O)OCCSC[C@H]1O[C@@H](n2cnc3c(N)ncnc32)[C@H](OC(C)=O)[C@@H]1OC(C)=O,0.12 µg/mL
9,Nc1ncnc2c1ncn2[C@@H]1O[C@](S)(CO)[C@@H](O)[C@H]1O,14 µg/mL

# Test system: Vesicular stomatitis virus
# Assay: Antiviral activity against VSV in BHK cells
# Assay type: functional, organism-based
row,Compound,IC50
1,Nc1ncnc2c1ncn2[C@@H]1O[C@H](/C=C/I)[C@@H](O)[C@H]1O,2 µg/mL
